Assays:
[1] = system: beta-adrenergic receptors; test: beta-adrenergic blocking action and its selectivity (cardiac, vascular smooth muscle, metabolic effects); format: in vivo; conditions: for relative specificity of beta-adrenergic antagonism, peripheral vasculature versus heart: effects of beta-adrenergic agonists; for level of activity: in vivo

level of activity [1] | Compound | relative specificity of beta-adrenergic antagonism, peripheral vasculature versus heart [1] | selectivity of beta-adrenergic blocking action, cardiac and smooth muscle versus metabolic effects ([1]; versus anti-hyperglycemia and anti-hyperlactacidemia) | anti-arrhythmic activity (anti-arrhythmic activity) | anti-arrhythmic potency relative to procainamide (anti-arrhythmic activity; versus procainamide) [times] | anti-arrhythmic potency relative to quinidine (anti-arrhythmic activity; versus quinidine) [times]
high level of activity | CC(C)NCC(O)c1ccc(NS(=O)(=O)N(C)C)cc1 (centres unmarked) [N,N-dimethyl-N'-[4-(1-hydroxy-2-isopropylaminoethyl)phenyl]sulfamide] | relative specificity for antagonism of the effects of beta-adrenergic agonists on the peripheral vasculature | relatively selective for cardiac and smooth muscle as opposed to the metabolic effects of anti-hyperglycemia and anti-hyperlactacidemia | potent anti-arrhythmic agent | 2.6 | 1.3
high level of activity | CC(C)NCC(O)c1ccc(NS(N)(=O)=O)cc1 (centres unmarked) [N-[4-(1-hydroxy-2-isopropylaminoethyl)phenyl]sulfamide] | relatively stronger antagonist of the direct cardiac stimulatory effects evoked by beta-adrenergic agonists than of the peripheral vascular smooth muscle |  |  |  | 
